In ChEMBL document CHEMBL1201862, “PubChem BioAssay data set” (2004):
Calls of active or inactive are those of the source.

Assays:
[1] = molecular target: T1, Polyadenylate-binding protein 1 (Homo sapiens, UniProt P11940); test: MLLE binding blockers, Cy5 peptide tracer – biochemical, fluorescence polarization, Cy5-PAM2 peptide, secondary, miRNA deadenylation inhibitor project, dose response (AID 602260); type: functional; details: read-out: IC50_Mean
[2] = molecular target: T1, Polyadenylate-binding protein 1; test: MLLE domain peptide-binding blockers, IC50 – biochemical, fluorescence polarization, FITC-PAM2 peptide, dose response (AID 602259); type: functional; details: read-out: IC50_Mean
[3] = molecular target: T2, Leucine aminopeptidase (Plasmodium falciparum 3D7, UniProt Q8IL11); test: P. falciparum M17LAP inhibitors, primary screen, biochemical, fluorogenic H-Leu-NHMec substrate, 1536-well (AID 1619); type: functional
T2 sequence (Q8IL11 whole entry): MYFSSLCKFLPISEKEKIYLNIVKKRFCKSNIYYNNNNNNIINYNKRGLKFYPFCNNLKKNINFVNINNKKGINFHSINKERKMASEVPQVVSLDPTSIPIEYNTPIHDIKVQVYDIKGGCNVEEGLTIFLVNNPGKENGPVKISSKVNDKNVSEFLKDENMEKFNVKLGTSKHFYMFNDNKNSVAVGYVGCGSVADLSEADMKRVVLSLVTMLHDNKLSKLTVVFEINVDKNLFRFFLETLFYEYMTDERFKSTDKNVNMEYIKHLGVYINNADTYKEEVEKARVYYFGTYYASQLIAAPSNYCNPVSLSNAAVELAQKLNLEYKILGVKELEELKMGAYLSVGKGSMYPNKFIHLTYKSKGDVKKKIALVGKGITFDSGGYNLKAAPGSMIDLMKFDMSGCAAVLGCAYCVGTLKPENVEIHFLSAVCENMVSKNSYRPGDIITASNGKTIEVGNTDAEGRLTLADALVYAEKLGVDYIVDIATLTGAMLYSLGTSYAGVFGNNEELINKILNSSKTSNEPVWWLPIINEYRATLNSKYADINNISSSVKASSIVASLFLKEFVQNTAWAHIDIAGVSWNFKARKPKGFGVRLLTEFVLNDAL

[4] = viability of HCT116 lacking mutant beta-catenin – cell-based, human colon tumor, dose response (AID 1045); type: functional;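 note: HCT116 colon tumor cells with beta catenin knocked out; cells exposed to compound for 60 hours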
[5] = viability of PTEN-deleted HCT116 cells – cell-based, HCT116 PTEN knockout, dose response (AID 1047); type: functional;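 note: HCT116 colon tumor cells with PTEN knocked out; cells exposed to compound for 60 hours before readout; potency for loss of cell viability measured by luminescence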
[6] = system: H9c2; test: cells; type: functional, cell-based; details: Rattus norvegicus, H9c2, Myocardium;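 note: confirmatory concentration-response retest of ultra-high-throughput screening hits for modulation of myocardial damage; cell death induced by hydrogen peroxide oxidative stress; compound pretreatment for 60 min then peroxide exposure for 2 h; potency is for protecting the cells against peroxide damage rather than for killing them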
[7] = molecular target: T3, Zinc finger protein mex-5 (Caenorhabditis elegans, UniProt Q9XUB2); test: potency of MEX-5 RNA-binding blockers – biochemical, C. elegans, fluorescence polarization, dose response (AID 1960)
T3 sequence (Q9XUB2 whole entry): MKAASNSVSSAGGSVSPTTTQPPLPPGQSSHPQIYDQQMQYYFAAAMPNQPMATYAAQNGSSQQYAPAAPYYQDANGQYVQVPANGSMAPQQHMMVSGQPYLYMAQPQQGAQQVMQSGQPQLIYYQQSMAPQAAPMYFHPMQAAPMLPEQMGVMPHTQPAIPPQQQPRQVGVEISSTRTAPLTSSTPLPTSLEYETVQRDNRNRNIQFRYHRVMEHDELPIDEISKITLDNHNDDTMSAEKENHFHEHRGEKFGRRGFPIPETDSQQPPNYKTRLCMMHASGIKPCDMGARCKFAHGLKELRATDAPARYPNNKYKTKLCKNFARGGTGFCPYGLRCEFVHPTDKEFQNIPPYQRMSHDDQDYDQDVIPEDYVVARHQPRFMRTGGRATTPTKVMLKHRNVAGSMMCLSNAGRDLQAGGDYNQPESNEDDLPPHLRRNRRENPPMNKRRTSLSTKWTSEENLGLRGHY

[8] = molecular target: T4, RNA-binding protein pos-1 (Caenorhabditis elegans, UniProt G5EF15); test: disruptors of C. elegans POS-1 RNA interaction – biochemical, fluorescence polarization, dose response (AID 1964);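 note: purified POS-1 fused to maltose binding protein made in E. coli; potency of compounds blocking POS-1 binding to fluorescent RNA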
T4 sequence (G5EF15 whole entry): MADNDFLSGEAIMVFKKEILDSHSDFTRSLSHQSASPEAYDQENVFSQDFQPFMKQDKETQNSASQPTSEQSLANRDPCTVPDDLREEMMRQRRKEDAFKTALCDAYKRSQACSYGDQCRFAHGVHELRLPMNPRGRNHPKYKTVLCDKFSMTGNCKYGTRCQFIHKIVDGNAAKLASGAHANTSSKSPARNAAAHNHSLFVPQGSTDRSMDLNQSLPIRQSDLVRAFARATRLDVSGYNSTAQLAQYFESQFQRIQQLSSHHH

[9] = Luminescence Cell-Based Dose Retest to Confirm Inhibitors of Cancer Stem Cells. [Related pubchem assays (depositor defined):AID2717, AID2721]; type: functional; details: Homo sapiens
[10] = molecular target: T5, Rac GTPase-activating protein 1 (Homo sapiens, UniProt Q9H0H5); test: blockers of MgcRacGAP-driven Rac1 GTP hydrolysis – biochemical, ADP Hunter fluorescence, primary and confirmatory, confirmation (AID 624330); type: functional
T5 sequence (Q9H0H5 whole entry): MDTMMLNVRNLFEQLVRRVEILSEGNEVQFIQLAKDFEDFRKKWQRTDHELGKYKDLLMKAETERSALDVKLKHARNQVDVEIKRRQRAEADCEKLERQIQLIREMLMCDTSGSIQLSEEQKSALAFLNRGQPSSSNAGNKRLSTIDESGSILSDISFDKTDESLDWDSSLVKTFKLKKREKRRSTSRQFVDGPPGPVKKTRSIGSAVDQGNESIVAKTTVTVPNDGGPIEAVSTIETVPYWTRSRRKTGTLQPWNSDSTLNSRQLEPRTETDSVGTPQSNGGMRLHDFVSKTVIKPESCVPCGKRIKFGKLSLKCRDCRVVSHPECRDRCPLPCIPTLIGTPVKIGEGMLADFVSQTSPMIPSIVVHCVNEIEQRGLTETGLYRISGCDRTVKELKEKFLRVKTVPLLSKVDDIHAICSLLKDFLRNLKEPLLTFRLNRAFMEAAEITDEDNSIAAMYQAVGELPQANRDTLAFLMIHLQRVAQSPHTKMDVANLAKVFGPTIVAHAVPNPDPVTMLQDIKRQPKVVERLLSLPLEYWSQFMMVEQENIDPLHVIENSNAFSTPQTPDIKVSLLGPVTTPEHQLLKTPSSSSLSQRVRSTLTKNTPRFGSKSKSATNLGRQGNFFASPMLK
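Throughout, for AC50: cells exposed to compound for roughly 70 hours or longer before luminescence read.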

T1 sequence (P11940 whole entry, the tested form may be a part): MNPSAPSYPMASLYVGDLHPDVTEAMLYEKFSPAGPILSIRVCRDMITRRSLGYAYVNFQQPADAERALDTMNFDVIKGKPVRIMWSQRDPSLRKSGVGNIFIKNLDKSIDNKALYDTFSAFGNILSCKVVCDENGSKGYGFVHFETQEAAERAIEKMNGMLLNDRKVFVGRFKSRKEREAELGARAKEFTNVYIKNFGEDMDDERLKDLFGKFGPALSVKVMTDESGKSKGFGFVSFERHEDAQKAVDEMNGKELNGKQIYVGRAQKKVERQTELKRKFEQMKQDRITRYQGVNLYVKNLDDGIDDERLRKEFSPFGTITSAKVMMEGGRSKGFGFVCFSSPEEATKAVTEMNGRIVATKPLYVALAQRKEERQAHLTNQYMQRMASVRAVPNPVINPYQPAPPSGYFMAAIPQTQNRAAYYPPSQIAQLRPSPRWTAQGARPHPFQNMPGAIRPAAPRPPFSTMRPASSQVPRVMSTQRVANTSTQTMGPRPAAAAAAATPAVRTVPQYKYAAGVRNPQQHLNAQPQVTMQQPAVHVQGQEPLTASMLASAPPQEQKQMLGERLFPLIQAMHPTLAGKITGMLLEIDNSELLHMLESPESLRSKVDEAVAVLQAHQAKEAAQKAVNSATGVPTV

Structure (SMILES)	IC50 [1]	IC50 [2]	IC50 [6]	also measured
Cc1ccc([N+](=O)[O-])cc1NC(=S)NC(=O)c1cccnc1	> 66 µM (inactive)	> 66 µM (inactive)	–	–
O=C(CSc1nnc(NC2CCCCC2)s1)NN1C(=O)NC2(CCCCC2)C1=O	–	–	–	IC50 [3]: 10.5 µM (active)
Cc1ccc(-c2nc3ccccc3o2)cc1NC(=S)NC(=O)c1cc2ccccc2o1	–	–	–	EC50 [4]: 4.68 µM (active); EC50 [5]: 5.17 µM (active)
COc1cccc(/C=C2/SC(=O)N(CC(=O)N3CCc4ccccc4C3)C2=O)c1OCC(=O)O	–	–	–	IC50 [3]: 16.2 µM (active)
O=C(COC(=O)Cn1[nH]c(=O)c2ccccc2c1=O)Nc1c(Cl)cccc1C(F)(F)F	–	–	> 79 µM (inactive)	–
CCOc1ccccc1NC(=O)Nc1ccc(OC)nc1	> 66 µM (inactive)	35.9 µM (inactive)	–	EC50 [7]: 29.5 µM (active); EC50 [8]: 31.6 µM (active)
O=C(N/N=C/c1cn(-c2ccccc2)nc1-c1cccnc1)c1cccnc1	–	–	> 79 µM (inactive)	–
COc1ccc(Nc2nc(Nc3ccc(OC)cc3OC)nc(N3CCN(C)CC3)n2)c(OC)c1	–	–	> 79 µM (inactive)	–
O=C(/C=C/c1ccc(-c2ccccc2[N+](=O)[O-])o1)c1ccco1	> 66 µM (inactive)	> 66 µM (inactive)	–	–
Cn1nc(C(F)(F)F)c(C(=O)Nc2cccc(C(F)(F)F)c2)c1SCc1ccc(Cl)cc1	–	–	–	EC50 [4]: 26.7 µM (active); EC50 [5]: 22.4 µM (active); AC50 [9]: 6.27 µM (active)
CC(C)C(NC(=O)c1cccs1)C(=O)NC1=NCCS1 (centres undefined)	> 66 µM (inactive)	> 66 µM (inactive)	–	–
Sc1ncnc2c1ncn2C1CCCO1 (centres undefined)	> 66 µM (inactive)	> 66 µM (inactive)	–	–
O=C(COC(=O)c1c2c(nc3ccccc13)/C(=C/c1cccc([N+](=O)[O-])c1)CCC2)NC1CCS(=O)(=O)C1 (centres undefined)	–	–	11.1 µM (active)	–
Cc1cc2cc(CNC(=O)c3ccc4c(c3)OCO4)ccc2n1C	> 66 µM (inactive)	> 66 µM (inactive)	–	–
COc1cc(C(=O)Nc2cccc(-c3nnc(-c4ccco4)o3)c2)ccc1OC(C)=O	–	–	> 79 µM (inactive)	–
CN(C)c1cc2c3ccccc3n(C)c2cc1N	> 66 µM (inactive)	22.8 µM (inactive)	–	IC50 [10]: 12.7 µM (active)
